# Experimental data from a melting point compilation (Tetko et al.).
row,melting point [°C],Structure (SMILES)
1,21,CC(=O)Oc1ccc(Br)cc1
2,103,O=C1C2=C(C(=O)c3ccccc31)C1(CC1)C21CC1
3,126,O=C(COC(=O)c1ccccc1)NC(CO)(CO)CO
4,133 to 139,COc1ccc(C(=O)c2ccccc2F)cc1[N+](=O)[O-]
5,> 345,O=[N+]([O-])c1cnc2ccccc2c1O
6,176,N#Cc1ccc(N)c2ccccc12
7,155,NC(=O)C(CO)NC(=O)OCC1c2ccccc2-c2ccccc21 (stereo not given)
8,121,COc1ccc(C(CCC(=O)O)C(C)(C)C(=O)O)cc1 (stereo not given)
9,97,CCOC(=O)c1cc(-c2ccccc2)n(-c2ccccc2)c1C
10,180,Nc1c(S/C=C/Cl)ccc2c1C(=O)c1ccccc1C2=O
11,83,OCCN(CCO)CCc1ccc(COc2ccccc2)cc1
12,174,c1ccc(CC2=NCCN2)cc1
13,86 to 87,Clc1nccc(-c2ccccc2)n1
14,38,c1ccc2nnccc2c1
15,83,O=C(NC(CO)C(=O)OCc1ccccc1)OCc1ccccc1 (stereo not given)
16,198,O=C(O)C=CC(=O)Nc1cccc(Cl)c1
17,102,CCCCC1C(=O)NN(c2ccccc2)C1=O (stereo not given)
18,133,CC(=O)N1C(=O)[C@@](O)([C@H]2c3ccccc3O[C@@H]2Cl)c2ccccc21
19,163,COc1cc(/C=C\C(=O)NCCc2ccc(OCc3ccccc3)c(OC)c2)ccc1OCc1ccccc1
20,215,CC(=O)c1ccc(NC(N)=S)cc1
21,87,CC(=O)C(N=Nc1ccccc1)C(C)=O
22,80,Cc1c(NC(C)C)c(=O)n(-c2ccccc2)n1C
23,-24.5,CC(C)C(c1ccccc1)C(C)C
24,103 to 106,N#CC1(N2CCCCC2)CCN(Cc2ccccc2)CC1

row,melting point [°C],Structure (SMILES)
1,49,c1ccc(Oc2ccccc2-c2ccccc2)cc1
2,53 to 59,CCOC(=O)CC(=O)c1ccncc1
3,72,COC(=O)c1cc(Br)ccc1N
4,135,Cc1c(C)c(C)c(C(=O)Cc2ccccc2)c(C)c1C
5,121 to 126,O=C(O)c1c(F)cccc1I
6,365,Nc1ccc(S(=O)(=O)O)cc1
7,143 to 144,CC(C)(C)OC(=O)N1CCCN(c2cccc(O)c2)CC1
8,24.5,COc1ccc(C(=O)Cl)cc1
9,72 to 74,COC(=O)c1nn2ccccc2c1C(=O)OC
10,70 to 74,Cc1c(C(=O)Cl)oc2ccccc12
11,79 to 80,O=C(C=Cc1ccccc1)c1ccc(F)cc1
12,215,O=C1C(Cl)=C(Nc2ccccc2)C(=O)c2ccccc21
13,210,O=C(O)CC(O)(c1ccccc1)c1ccccc1
14,36 to 38,S=C=NCC(c1ccccc1)c1ccccc1
15,202,NCC(O)CC(=O)O (racemic)
16,58 to 59,NCc1cc2ccccc2s1
17,169,Cc1cc(O)c2ccccc2c1O
18,57,O=C(O)Cc1ccc(F)c(Cl)c1
19,60,CC(C)[C@H](NC(=O)OCc1ccccc1)C(=O)O
20,136 to 137,NC(=S)Nc1ccccc1[N+](=O)[O-]
21,171,CC(C)(C(=O)O)C(CC(=O)O)c1ccccc1 (stereo not given)
22,110,CC1=C(C(=O)Nc2ccccc2)CCCO1
23,146,Cc1c(Cl)ccc(OC(C)C(=O)Nc2ccccc2)c1Cl (stereo not given)
24,230 to 233,NNC(=O)c1csc(-c2cccc(Cl)c2Cl)n1

# More lines, now with the values behind:
row,Structure (SMILES),melting point [°C]
1,CCC(C)n1c(=O)[nH]c(C)c(Br)c1=O (stereo not given),158
2,FC(F)(F)c1cccnc1S,180 to 182
3,CCCSCC,-117
4,O=Cc1cc(I)cc(I)c1O,108
5,N#C/C(=C\c1cccnc1)c1nc2ccccc2[nH]1,228
6,O=[N+]([O-])c1ccccc1OCCN1CCOCC1,44 to 45
7,CC12CCCC1C1CCC3CC(O)CCC3(C)C1CC2 (stereo not given),148
8,C=CN(C)C(C)=O,-36
9,NCC[C@H](O)C(=O)O,200 to 203
10,Cc1cc(C)n(C)n1,35.5
11,O=C(O)C1(O)CC(O)C(O)C(O)C1 (stereo not given),166 to 168
12,CC(=O)N1CCN(CCN2C3=C(C(=O)CC(C)(C)C3)C(c3ccc(Cl)cc3)C3=C2CC(C)(C)CC3=O)CC1,213
13,Cc1cccc(/N=N/c2c(C)[nH]c(=S)c(C#N)c2C)c1C,259
14,CC1OC(C)OC(C)OC(C)O1 (stereo not given),246
15,CCCCNC(=O)n1cc(F)c(=O)[nH]c1=O,136
16,O=[N+]([O-])c1ccc2c(c1)S(=O)(=O)CC2SCCO (stereo not given),127 to 129
17,O=C=Nc1ccc2c(c1)CCO2,42 to 43
18,CC(C=CC=C(C)C=CC1=C(C)C(=O)C(O)CC1(C)C)=CC=CC=C(C)C=CC=C(C)C=CC1=C(C)C(=O)C(O)CC1(C)C (stereo not given),182
19,O=[N+]([O-])c1cc(C(O)Cc2ccc3ccccc3n2)ccc1C(O)Cc1ccc2ccccc2n1 (stereo not given),172
20,C#CCCCCC,-81
21,Nc1nc(N)nc(-c2cc(Cl)ccc2Cl)n1,268

row,Structure (SMILES),melting point [°C]
1,Brc1ccc2ncsc2c1,53 to 54
2,CC(C)(C)OC(=O)C(C)(C)ON=C(C(=O)O)c1csc(N)n1,180
3,S=C(NC1CCCCC1)C(=S)NC1CCCCC1,150 to 152
4,COc1ccc2ccc(=O)oc2c1CC=C(C)C,83.5
5,CCC1(CC)C(=O)NC(=O)NC1=O,190
6,Nc1ccc(C(c2ccccc2)(c2ccccc2)c2ccccc2)cc1,258
7,CC(=O)OCC(=O)C1(O)CCC2C3CCC4=CC(=O)CCC4(C)C3C(=O)CC21C (stereo not given),222
8,OCc1cccc(CN2CCCCC2)c1,67 to 69
9,O=C(O)CN(CC(=O)O)CC(=O)O,245
10,CC[Si](Cl)(Cl)Cl,-106
11,Cc1cc2c(ccc3nonc32)nn1,167 to 169
12,C=CF,-160
13,Cc1cc(C)cc(C=O)c1,8 to 10
14,OC(CCl)CCl,-4
15,O=C(O)c1cc(C(F)(F)F)ccc1N1CCOCC1,175 to 177
16,CC1CCC(C)(CO)C1(C)C (stereo not given),94
17,Cc1cc(C(C)(C)C)ccc1O,27.5
18,CC12CCC3C(CCC4CC(C#N)CCC43C)C1CCC2=O (stereo not given),164
19,OCc1ccc(-n2cccn2)cc1,76 to 80
20,CC(C(=O)Nc1ccc(F)c(F)c1F)(C(F)(F)F)C(F)(F)F,44
21,c1ccc(Cc2ccc3c4ccccc4c4ccccc4c3c2Cc2ccccc2)cc1,178

row,Structure (SMILES),melting point [°C]
1,COc1cc(I)cc(C=O)c1O,129
2,COc1ccc(CCN2CCC(Nc3nc4ccccc4n3Cc3ccc(F)cc3)CC2)cc1,149
3,O=[N+]([O-])c1ccc(Cc2ccccn2)c([N+](=O)[O-])c1,92
4,O=C(Cl)c1cc2cc(Br)ccc2s1,99 to 102
5,Oc1nc(S)c2nc[nH]c2n1,300
6,N[C@H]1CC[C@H](N)CC1,68 to 71
7,O=C(Cl)c1ccsc1Br,61 to 62
8,c1ccc(-c2c[nH]cn2)cc1,144
9,CC(C)(CO)[N+](=O)[O-],89.5
10,O=Cc1ccc(SCc2ccco2)c([N+](=O)[O-])c1,153 to 154
11,Cc1cc(C(c2ccc(C)o2)c2ccc(C)o2)c(O)c([N+](=O)[O-])c1,93
12,c1ccc2c(c1)cc1ccc3cccc4c5ccccc5c2c1c34,162
13,C=COC=C,-101
14,Nc1ccccc1N1CCOCC1,98 to 99
15,O=[N+]([O-])c1cccc2c1cnn2C1CC(O)C(CO)O1 (stereo not given),140
16,COC(=O)c1cc(C)n(C)c1C,117
17,NC(=O)c1cccc(CCl)c1,125 to 127
18,Cc1cc(C(F)(F)F)n2nc(N)c(/N=N/c3ccccc3)c2n1,201 to 203
19,c1ccc2c(c1)OCCOCCNCCOCCO2,147 to 149
20,Cc1c(C)c([N+](=O)[O-])c(C)c2c1C(=O)C2,164
21,Cc1ccc(C(N)C(N)c2ccc(C)cc2)cc1 (stereo not given),113 to 117

row,Structure (SMILES),melting point [°C]
1,O=C(O)C=Cc1c(F)c(F)c(F)c(F)c1F,153
2,ON=Cc1c(Cl)cccc1Cl,149
3,O=C(O)c1cc2cccnc2s1,293 to 294
4,CC(=O)Nc1cc(NC(C)=O)c([N+](=O)[O-])cc1[N+](=O)[O-],247 to 248
5,Clc1c(Cl)c(Cl)c2nccnc2c1Cl,190
6,Cc1cc(C(=O)CCl)c(C)n1-c1ccc(F)cc1,80 to 82
7,Nc1nc(NC2CC2)c2ncn(C3C=CC(CO)C3)c2n1 (stereo not given),165
8,O=Cc1cccc(CBr)c1,49 to 51
9,Sc1cc(Cl)c(Cl)cc1Cl,117 to 118
10,c1cc2c(nn1)CCc1nonc1-2,108 to 110
11,CC=C(C)C(=O)OC1CCN2CC=C(COC(=O)C(O)(C(C)OC)C(C)(C)O)C12 (stereo not given),97
12,Clc1ccc(C=Nc2n[nH]c(N=Cc3ccc(Cl)cc3)c2Cc2ccc(Cl)cc2)cc1,228 to 230
13,O=[N+]([O-])c1ccc(N2CCCCC2)cc1,104 to 106
14,Brc1cc(Br)c(Oc2cc(Br)c(Br)cc2Br)cc1Br,160 to 163
15,N#C/C(=C/c1ccc(F)cc1)c1nc(-c2ccc(Cl)cc2)cs1,184
16,O=C(O)C1(c2ccc(Cl)cc2)CCC1,80 to 90
17,Cc1cc2c(nn1)CCc1nonc1-2,143 to 145
18,Cn1c2cc(N3CCCC3)cc(-c3ccccc3)c2c(=O)n1-c1ccccc1,159
19,O=C(CC(=O)C(F)(F)F)c1ccc2c(c1)OCO2,108 to 109
